The assay concerns methicillin sensitive S. aureus (strain MN8). Description: Murine lethal septicemia model in immuno-competent mice. The format is in vivo. To be noted: Vancomycin 30 mg/kg. Here is the method:
Differences in viable bacterial counts between control and drug-treated groups were analyzed by 1-way ANOVA followed by Dunnett's adjustment for multiplicity. For lethal septicemia, differences in survival between control and drug-treated groups were performed using a Log Rank test followed by a Bonferroni-Holm's adjustment for multiplicity

The values that follow come from US20150210755A1, “ANTI-POLY-N-ACETYL GLUCOSAMINE (PNAG) MONOCLONAL ANTIBODY AND USES THEREOF FOR THE PREVENTION OR TREATMENT OF PNAG EXPRESSING BACTERIAL INFECTION” (SANOFI, priority 2012, published 2015).

Consider `CN[C@H](CC(C)C)C(=O)N[C@H]1C(=O)N[C@@H](CC(N)=O)C(=O)N[C@H]2C(=O)N[C@H]3C(=O)N[C@H](C(=O)N[C@H](C(=O)O)c4cc(O)cc(O)c4-c4cc3ccc4O)[C@H](O)c3ccc(c(Cl)c3)Oc3cc2cc(c3O[C@@H]2O[C@H](CO)[C@@H](O)[C@H](O)[C@H]2O[C@H]2C[C@](C)(N)[C@H](O)[C@H](C)O2)Oc2ccc(cc2Cl)[C@H]1O` [Vancomycin], for which the “% Survival (96 h post-infection)” value came out at 100%.
